Measurements from US20070078111A1, “LPA2 receptor agonist inhibitors of CFTR” (priority 2005, published 2007).

Key:
LPA2 receptor = LPA2 receptor (Homo sapiens, UniProt Q9HBW0); experiment: LPA2 receptor agonist activity (EC50, Emax); type: cell-based; settings: for LPA2 (Emax): value in parentheses
[1] = test system: CTX-induced Cl- secretion; type: in vivo, C57BL/6 mice; settings: 6 hours
CFTR = experiment: Iodide efflux measurements in Calu-3 cells; type: cell-based, human; settings: for CFTR activity, peak iodide efflux in response to adenosine: adenosine as CFTR agonist, FIG. 2C
NHERF2 = target: T1, NHERF2 (Homo sapiens, UniProt Q15599); experiment: NHERF2 binding to LPA2 in the presence of LPA2-specific peptide; settings: FIG. 4H
T1 construct: GST
T1 sequence (Q15599 whole entry): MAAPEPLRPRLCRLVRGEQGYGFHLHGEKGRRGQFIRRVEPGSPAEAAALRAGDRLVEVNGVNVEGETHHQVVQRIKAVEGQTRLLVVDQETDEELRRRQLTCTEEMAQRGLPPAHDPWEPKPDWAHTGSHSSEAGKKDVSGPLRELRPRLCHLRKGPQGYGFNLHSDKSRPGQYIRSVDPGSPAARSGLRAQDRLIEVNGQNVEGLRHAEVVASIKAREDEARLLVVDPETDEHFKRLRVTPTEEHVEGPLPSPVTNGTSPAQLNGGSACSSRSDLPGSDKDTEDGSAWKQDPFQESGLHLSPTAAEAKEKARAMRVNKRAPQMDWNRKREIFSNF
Method: This assay (34) was performed using maltose binding protein (MBP)-CFTR-C tail fusion protein (1 μM) immobilized on amylose beads (20 μl) and incubated with GST-NHERF2. This step, which is called pairwise binding, was done in 200 μl of lysis buffer (PBS-0.2% Triton-X 100+protease inhibitors) and mixed at 22° C. for 2 h. The complex was washed once with the same buffer and allowed to bind Flag-tagged LPA2 from lysates of BHK cells expressing the receptor. The binding was done at 4° C. for 3 h with constant mixing. The complex was washed with lysis buffer, eluted with sample buffer, and analyzed by immunoblotting using anti-Flag monoclonal antibody.

CFTR Cl- channel [2] = experiment: Short-circuit current (Isc) in polarized Calu-3 monolayers; type: cell-based, human
Method: (§1) Calu-3 and HT29-CL19A polarized cell monolayers were grown to confluency on Costar Transwell permeable supports (filter area is 0.33 cm^2). Filters were mounted in an Ussing chamber, and short-circuit currents (Isc) mediated through CFTR Cl^− channel were carried out as described previously (31). Epithelia were bathed in Ringer's solution (mM) (serosal/basolateral: 140 NaCl^−, 5 KCl, 0.36 K2HPO4, 0.44 KH2PO4, 1.3 CaCl2, 0.5 MgCk2, 4.2 NaHCO3, 10 Hepes, 10 glucose, pH 7.2, [Cl^−]=149), and low Cl-Ringer's solution (mM) (luminal/apical: 133.3 Na-gluconate, 5 K-gluconate, 2.5 NaCl, 0.36 K2HPO4, 0.44 KH2PO4, 5.7 CaCl2, 0.5 MgCl2, 4.2 NaHCO3, 10 Hepes, 10 mannitol, pH 7.2, [Cl^−]=14.8) at 37° C., gassed with 95% O2 and 5%) […] CO2. LPA (20:4) was added into both the luminal (apical) side and serosal (basolateral) side of the cell monolayers for 30 min before adenosine (ADO) was added into the luminal/apical side. […]

CFTR Cl- channel [3] = experiment: Short-circuit current (Isc) in polarized HT29-CL19A monolayers; type: cell-based, human; settings: HT29 cells; LPA (20:4) pretreatment 30 min; FIG. 2E
Method: as §1

CFTR Cl- channel [4] = experiment: Short-circuit current (Isc) in isolated mouse intestine; settings: isolated mouse intestine pretreated with LPA (20:4); dose-dependent; FIG. 2G, 2H
Method: as §1

[5] = test system: CTX-induced intestinal fluid secretion; type: in vivo, CD1 mice

Chain of LPA2 receptor (Q9HBW0 whole entry): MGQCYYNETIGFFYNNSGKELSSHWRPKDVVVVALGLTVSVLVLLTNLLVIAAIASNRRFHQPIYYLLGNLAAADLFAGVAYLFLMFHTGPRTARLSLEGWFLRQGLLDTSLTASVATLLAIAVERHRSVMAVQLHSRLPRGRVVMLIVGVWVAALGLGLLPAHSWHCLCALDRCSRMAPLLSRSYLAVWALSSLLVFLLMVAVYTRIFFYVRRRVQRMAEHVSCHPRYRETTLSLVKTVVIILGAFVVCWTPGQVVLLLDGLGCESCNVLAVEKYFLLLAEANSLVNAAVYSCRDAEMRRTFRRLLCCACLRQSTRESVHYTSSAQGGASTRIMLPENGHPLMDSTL

Compound: CCCCCCCC=CCCCCCCCC[C@@H]1OC[C@H](COP(=O)([O-])O)O1.[K+] [(2R,4R) Mono potassium phosphoric acid O-(2-heptadec-9-enyl-(1,3)-dioxolan-4-ylmethyl) ester]
- EC50 (LPA2 receptor; Table 2): 1.71 µM
- LPA2 (Emax) (LPA2 receptor; Table 2): 42

Compound: CCCCCCCC=CCCCCCCCC[C@@H]1OC[C@H](COP([O-])(O)=S)O1.[K+] [(2R,4R) Mono potassium thiophosphoric acid O-(2-heptadec-9-enyl-(1,3)-dioxolan-4-ylmethyl) ester]
- EC50 (LPA2 receptor; Table 2): 1.09 µM
- LPA2 (Emax) (LPA2 receptor; Table 2): 85

Compound: CCCCCCCC=CCCCCCCCC[C@@H]1OC[C@@H](COP([O-])(O)=S)O1.[K+] [(2R,4S) Mono potassium thiophosphoric acid O-(2-heptadec-9-enyl-(1,3)-dioxolan-4-ylmethyl) ester]
- EC50 (LPA2 receptor; Table 2): 1.54 µM
- LPA2 (Emax) (LPA2 receptor; Table 2): 72

Compound: CCCCCCCC=CCCCCCCCC[C@H]1OC[C@H](COP([O-])(O)=S)O1.[K+] [(2S,4R) Mono potassium thiophosphoric acid O-(2-heptadec-9-enyl-(1,3)-dioxolan-4-ylmethyl) ester]
- EC50 (LPA2 receptor; Table 2): 1.3 µM
- LPA2 (Emax) (LPA2 receptor; Table 2): 77

Compound: CCCCCCCC=CCCCCCCCC[C@H]1OC[C@@H](COP([O-])(O)=S)O1.[K+] [(2S,4S) Mono potassium thiophosphoric acid O-(2-heptadec-9-enyl-(1,3)-dioxolan-4-ylmethyl) ester]
- EC50 (LPA2 receptor; Table 2): 1.32 µM
- LPA2 (Emax) (LPA2 receptor; Table 2): 87

Compound: CCCCCCCC(=O)OC[C@H](COP(O)(O)=S)OC(=O)CCCCCCC [(R)-Octanoic acid 1-octanoyloxymethyl-2-thiophosphonooxy-ethyl ester]
- LPA2 (Emax) (LPA2 receptor; Table 1): 58

Compound: CCCCCCCCOC[C@H](COP(O)(O)=S)OCCCCCCCC [(R)-Thiophosphoric acid O-(2,3-bis-octyloxy-propyl) ester]
- EC50 (LPA2 receptor; Table 1): 5.72 µM
- LPA2 (Emax) (LPA2 receptor; Table 1): 27

Compound: CCCCCCCC(=O)OC[C@@H](COP(O)(O)=S)OC(=O)CCCCCCC [(S)-Octanoic acid 1-octanoyloxymethyl-2-thiophosphonooxy-ethyl ester]
- LPA2 (Emax) (LPA2 receptor; Table 1): 17

Compound: CCCCCCCC/C=C\CCCCCCCCOP(O)(O)=S [FAP 18:1d9, fatty alcohol thiophosphate 18:1d9]
- intestinal fluid accumulation [1]: significantly reduced
- ratio of intestinal weight before to after luminal fluid removal [1]: statistically significant reduction

Compound: CCCCCCCC/C=C\CCCCCCCC(=O)OC[C@@H](O)COP(=O)(O)O [LPA 18:1]
- rank order of inhibition of peak iodide efflux in response to adenosine (CFTR; Calu-3 cells, […], FIG. 2D): LPA 20:4>LPA 18:2>LPA 18:1

Compound: CC=CCC=CCC=CCCCCCCCCC1OCC(COP(=O)(O)O)O1.[K] (stereo not drawn) [Mono potassium phosphoric acid O-(2-heptadec-9,12,15-trienyl-(1,3)-dioxolan-4-ylmethyl) ester]
- EC50 (LPA2 receptor; Table 2): 1.71 µM
- LPA2 (Emax) (LPA2 receptor; Table 2): 51

Compound: CCCCCCCC=CCCCCCCCCC1OCC(COP(O)(O)=S)O1.[K] (stereo not drawn) [Mono potassium thiophosphoric acid O-(2-heptadec-9-enyl-(1,3)-dioxolan-4-ylmethyl) ester]
- EC50 (LPA2 receptor; Table 2): 1.17 µM
- LPA2 (Emax) (LPA2 receptor; Table 2): 87

Compound: C=CCCCCCCCCOP(=O)(O)O [Phosphoric acid monodec-9-enyl ester]
- EC50 (LPA2 receptor; Table 1): 3.8 µM
- LPA2 (Emax) (LPA2 receptor; Table 1): 100

Compound: CCCCCCCCCCOP(=O)(O)O [Phosphoric acid monodecyl]
- EC50 (LPA2 receptor; Table 1): 1.8 µM
- LPA2 (Emax) (LPA2 receptor; Table 1): 82

Compound: CC/C=C\CCCCCCCCOP(=O)(O)O [Phosphoric acid monododec-9-enyl ester]
- EC50 (LPA2 receptor; Table 1): 0.717 µM
- LPA2 (Emax) (LPA2 receptor; Table 1): 78

Compound: CCCCCCCCCCCCOP(=O)(O)O [Phosphoric acid monododecyl ester]
- EC50 (LPA2 receptor; Table 1): 3.1 µM
- LPA2 (Emax) (LPA2 receptor; Table 1): 50

Compound: CCCC/C=C\CCCCCCCCOP(=O)(O)O [Phosphoric acid monotetradec-9-enyl ester]
- EC50 (LPA2 receptor; Table 1): 0.397 µM
- LPA2 (Emax) (LPA2 receptor; Table 1): 58

Compound: CC/C=C\CCCCCCCCCCOP(=O)(O)O [Phosphoric acid monotetradec-11-enyl ester]
- EC50 (LPA2 receptor; Table 1): 4.1 µM
- LPA2 (Emax) (LPA2 receptor; Table 1): 75

Compound: CCCCCCCCCCOP(O)(O)=S [Thiophosphoric acid O- decyl ester]
- EC50 (LPA2 receptor; Table 1): 4.57 µM
- LPA2 (Emax) (LPA2 receptor; Table 1): 100

Compound: CCCCCCCCCCCCOP(O)(O)=S [Thiophosphoric acid O- dodecyl ester]
- binding to the LPA2 receptor and thereby inhibiting CFTR activation (LPA2 receptor): particularly effective
- EC50 (LPA2 receptor; Table 1): 1 µM
- LPA2 (Emax) (LPA2 receptor; Table 1): 100

Compound: CCCCCCCCCCCCCCOP(O)(O)=S [Thiophosphoric acid O- tetradecyl ester]
- binding to the LPA2 receptor and thereby inhibiting CFTR activation (LPA2 receptor): particularly effective
- EC50 (LPA2 receptor; Table 1): 2.5 µM
- LPA2 (Emax) (LPA2 receptor; Table 1): 100

Compound: CCCC/C=C\CCCCCCCCOP(O)(O)=S [Thiophosphoric acid O-tetradec-9-enyl ester]
- binding to the LPA2 receptor and thereby inhibiting CFTR activation (LPA2 receptor): particularly effective
- EC50 (LPA2 receptor; Table 1): 0.48 µM
- LPA2 (Emax) (LPA2 receptor; Table 1): 150

Compound: CC/C=C\CCCCCCCCOP(O)(O)=S [drawing 10, Thiophosphoric acid O-dodec-9-enyl ester]
- binding to the LPA2 receptor and thereby inhibiting CFTR activation (LPA2 receptor): particularly effective
- EC50 (LPA2 receptor; Table 1): 0.677 µM
- LPA2 (Emax) (LPA2 receptor; Table 1): 100

Compound: CCCCCCCC/C=C\CCCCCCCCOP(O)(O)=S [drawing 12, Thiophosphoric acid O-octadec-9-enyl ester]
- binding to the LPA2 receptor and thereby inhibiting CFTR activation (LPA2 receptor): particularly effective
- EC50 (LPA2 receptor; Table 1): 0.244 µM
- LPA2 (Emax) (LPA2 receptor; Table 1): 175

Compound: LPA2-specific peptide: peptide containing the PDZ motif of LPA2 (last 11 amino acids; a.a. 341 to 351, ENGHPLMDSTL)
- competition with LPA2 for binding to NHERF2 (NHERF2): could compete with LPA2 for binding to NHERF2 in a dose-dependent manner
- reversal of LPA-elicited inhibition on CFTR-dependent Cl- currents (Isc) (CFTR Cl- channel [2]; peptide delivered with Chariot, 25 μM LPA (20:4) 30 min, adenosine 0-20 μM, FIG. 4F): significantly reversed

Compound: lysophosphatidic acid [LPA]
- ratio of intestinal weight before to after luminal fluid removal [1]: statistically significant reduction
- CFTR-dependent Cl- currents (Isc) in response to adenosine (CFTR Cl- channel [3]): significantly inhibited
- effect of LPA alone on CFTR channel function (iodide efflux) (CFTR; Calu-3 cells, LPA alone, no cpt-cAMP): had no effect
- CFTR activity, peak iodide efflux in response to adenosine (CFTR; Calu-3 cells): dose-dependent inhibition
- response of Calu-3 cells to cpt-cAMP stimulation (iodide efflux) (CFTR; LPA pretreatment, FIG. 2A: LPA 18:1 (20 μM), cpt-cAMP 200 μM): reduced the response
- Isc in response to cpt-cAMP stimulation (CFTR Cl- channel [4]): inhibited
- CFTR-dependent Cl- currents (Isc) in response to adenosine (CFTR Cl- channel [2]; Calu-3 cells, LPA pretreatment 30 min, FIG. 2F): significantly inhibited
- CTX-elicited CFTR-dependent intestinal fluid secretion (ileal loop weight) ([5]; 6 h): significantly reducing fluid accumulation to the level of PBS control loops
- fluid accumulation in toxin-treated intestinal loops ([5]; mouse, in vivo): efficiently reduced the fluid accumulation

Compound: pertussis toxin [PTX]
- reversal of LPA-dependent inhibition of CFTR function (iodide efflux) (CFTR; Calu-3 cells pretreated with PTX 100 or 200 ng/ml for 24 h): reversed LPA-dependent inhibition of CFTR function in a dose-dependent fashion

Compound: phosphatidic acid [PA]
- CFTR activity, peak iodide efflux in response to adenosine (CFTR; Calu-3 cells): did not show any significant effect
